Source: EP0209707A2, “2-Aryl imidazoles, pharmaceutical compositions containing them and process for their preparation” (Dr. Karl Thomae GmbH, priority 1985, dated 1987)

Legend:
narkotisierten Katze = assay: Blood pressure effect and positive inotropic effect in the anaesthetised cat; format: in vivo; conditions: arterial pressure in Aorta abdominalis
Method: 1. Bestimmung der Blutdruckwirkung und der positiv inotropen Wirkung an der narkotisierten Katze
Die Untersuchungen wurden an Katzen durchgeführte die mit Pentobarbital-Natrium (40 mg/kg i.p.) narkotisiert waren. Die Tiere atmeten spontan. Der arterielle Blutdruck wurde in der Aorta abdominalis mit einem Statham-Druckwandler (P 23 Dc) gemessen. Für die Erfassung der positiv inotropen Wirkung wurde mit einem Kathetertipmanometer (Millar PC-350 A) der Druck in der linken Herzkammer gemessen. Daraus wurde der Kontraktilitätsparameter dp/dtmax mittels eines Analogdifferenzierers gewonnen. Die zu untersuchenden Substanzen wurden in eine Vena femoralis injiziert. Als Lösungsmittel diente Polydiol 200. Jede Substanz wurde an mindestens 2 Katzen geprüft.
Die nachfolgende Tabelle enthält die gefundenen Mittelwerte: […]

[1] = tested on: Thrombozytenaggregation in plättchenreichem Plasma gesunder Versuchspersonen; assay: Collagen-induced platelet aggregation (Born and Cross) in platelet-rich plasma; format: cell-based; conditions: 10 min, 50% change of optical density, plasma incubated 10 min with substance at 37°C
From the text: Die Thrombozytenaggregation wird nach der Methode von BORN und CROSS (J. Physiol. 170, 397 (1964)) in plättchenreichem Plasma gesunder Versuchspersonen gemessen. Zur Gerinnungshemmung wird das Blut mit Natriumcitrat 3,14 % im Volumenverhältnis 1:10 versetzt.
Der Verlauf der Abnahme der optischen Dichte der Plättchensuspension wird nach Zugabe der aggregationsauslösenden Substanz photometrisch gemessen und registriert. Aus dem Neigungswinkel der Dichtekurve wird auf die Aggregationsgeschwindigkeit geschlossen. Der Punkt der Kurve, bei dem die größte Lichtdurchlässigkeit vorliegt, dient zur Berechnung der "optical density".
Die Collagen-Menge wird möglichst gering gewählt, aber doch so, daß sich eine irreversibel verlaufende Reaktionskurve ergibt. Verwendet wird das handelsübliche Collagen der Firma Hormonchemie, München.
Vor der Collagen-Zugabe wird das Plasma jeweils 10 Minuten mit der Substanz bei 37°C inkubiert.
Aus den erhaltenen Meßzahlen wird graphisch eine EC50 berechnet, die sich auf eine 50%ige Änderung der "optical density" im Sinne einer Aggregationshemmung bezieht.

[2] = second value of the printed pair (presumably diastolic), 1 mg/kg i.v.

EC50 [1] [µM] | Structure (SMILES) | Blutdruck senkung in mm Hg (narkotisierten Katze; second value of the printed pair (presumably diastolic), 0,6 mg/kg i.v.) [mm Hg] | Blutdruck senkung in mm Hg (narkotisierten Katze; [2]) [mm Hg] | Blutdruck senkung in mm Hg (narkotisierten Katze; second value of the printed pair (presumably diastolic), 2 mg/kg i.v.) [mm Hg]
 | COc1cc(NS(C)(=O)=O)ccc1-c1nc2ccc(C#N)cc2[nH]1 [D, 5-Cyano-2-(4'-methansulfonylamino-2'-methoxy-phenyl)-benzimidazol] | -27 |  | 
5.3 | COc1cc(S(C)(=O)=NC(C)=O)ccc1-c1nc2cc(C#N)ccc2[nH]1 (centres unmarked) [A, 2-[2'-Methoxy-4'-(N-acetyl-methylsulfoximino-phenyl)]-5-cyano-benzimidazol] |  | -20 | 
8.2 | COc1cc([S+](C)[O-])ccc1-c1nc2ccc(C(C)=O)cc2[nH]1 (centres unmarked) [B, 2-(2'-Methoxy-4'-methylsulfinyl-phenyl)-5-acetyl-benzimidazol] |  | -28 | 
 | COC(=O)Nc1ccc(-c2nc3cnccc3[nH]2)c(OC)c1 [E, 2-(2'-Methoxy-4'-methoxycarbonylamino-phenyl)-imidazo-[4,5-c]pyridin] |  |  | -12
8 | COc1cc(S(C)(=O)=O)ccc1-c1nc2ccc(C(C)=O)cc2[nH]1 [C, 2-(2'-Methoxy-4'-methylsulfonyl-phenyl)-5-acetyl-benzimidazol] |  | -24 | 
